The results in this text go back to patent US7122570B2, “Tetrahydrocarbazol derivatives as ligands for G-protein-coupled receptors (GPCR)” (Zentaris AG, priority 2001, dated 2006).

The target of test [1] is T1, GnRH receptor (Homo sapiens, UniProt P30968).
T1 sequence (P30968 1-328): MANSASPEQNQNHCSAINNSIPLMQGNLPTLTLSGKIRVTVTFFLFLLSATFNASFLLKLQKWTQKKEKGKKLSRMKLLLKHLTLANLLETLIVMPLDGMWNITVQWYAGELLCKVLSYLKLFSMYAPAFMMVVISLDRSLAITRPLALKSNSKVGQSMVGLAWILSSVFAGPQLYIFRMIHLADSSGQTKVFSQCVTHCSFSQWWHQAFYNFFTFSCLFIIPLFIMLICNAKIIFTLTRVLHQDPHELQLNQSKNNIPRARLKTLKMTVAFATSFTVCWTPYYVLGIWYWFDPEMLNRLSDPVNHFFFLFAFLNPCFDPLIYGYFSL
The test is described as follows: Ca2+ release, human. The test is classed as cell-based. The settings on record: read-out: Ca^2+ Release Human IC50.

Test [2] concerns the target T2, hGnRH-Receptor (Homo sapiens, UniProt P30968).
T2 construct: expressed in transfected cells; host or cells: CHO-3 cells (Schmid et al., J. Biol. Chem. 275 (2000), 9193-9200), membrane preparation
T2 sequence (P30968 1-328): T1 sequence (P30968 1-328)
The test is described as follows: GnRH receptor assay: competition binding with 125I-labeled buserelin on cell membranes. The settings on record: competition with 125I-buserelin. As to the method:
Buserelin is ordered from Welding (Frankfurt/Main, Germany). The compound is labeled with ^125I by use of the chloramine T-method and Na^125I (4000 Ci/mmol; Amersham-Buchler, Brunswick, Germany). The labeled substance is purified by reverse phase HPLC on a Spherisorb ODS II column (250×4 mm, particle size 3 μm) by elution with 50% acetonitrile/0.15% trifluoroacetic acid at a flow rate of 0.5 ml/minute. The specific activity is 2000 Ci/mmol.
Alpha T3-1 cells (Bilezikjian et al., Mol. Endocrinol 5 (1991), 347–355) are cultivated in DMEM medium (Gibco-BRL, Eggenstein-Leopoldshafen, Germany) with penicillin (100 I.U./ml), streptomycin (0.1 mg/ml) and glutamine (0.01 mol/l) and 10% fetal calf serum (FCS; PAA Laboratories, Coelbe, Germany) on plastic tissue culture plates (Nunc, 245×245×20 mm). CHO-3 cells (Schmid et al., J. Biol. Chem. 275 (2000), 9193–9200) are cultivated under identical conditions, apart from the fact that Ham's F12 medium (Gibco-BRL) is used.
Ten confluent cell culture plates are flushed twice with 50 ml of phosphate-buffered salt solution (PBS). The cells are harvested by scraping them off with a rubber scraper in 5 ml of PBS and sedimented by centrifuging in a laboratory centrifuge (Heraeus) at 800 rpm for 10 minutes. The cell pellet is resuspended in 5 ml of 0.25 mol/l of saccharose/0.01 mol/l of triethanolamine, pH 7.4. The cells are lysed by three cycles of freezing in dry ice/ethanol bath and thawing at room temperature. The lysate is centrifuged at 900 rpm for 10 minutes, and the sediment is discarded. The supernatant is centrifuged at 18,000 rpm in a Sorvall SS34 rotor for 30 minutes. The pellet (cell membranes) is suspended by Potters in 5 ml of assay buffer (0.25 mol/l of saccharose, 0.01 mol/l of triethanolamine, pH 7.5, 1 mg/ml of ovalbumin) and stored in 200 μl of aliquots at −20° C. The determination of protein is carried out according to the Bradford method (Anal. Biochem. 72 (1976), 248–254).
Binding studies for competition curves are performed as triplicates. A test sample contains 60 μl of cell membrane suspension (10 μg of protein for αT3-1 cells or 40 μg of protein for CHO3 cells), 20 μl of ^125I-labeled buserelin (100,000 Ipm per sample for competition curves and between 1,500 and 200,000 Ipm for saturation experiments) and 20 μl of test buffer or test compound solution. The test compounds are dissolved in distilled water or 50% ethanol. Serial dilutions (5×10^−6 mol/l to […]) are produced in test buffer. The unspecific binding is determined in the presence of excess unlabeled buserelin (10^−6 mol/1). The test samples are incubated for 30 minutes at room temperature. Bonded and free ligands are separated by filtration (Whatman GF/C-filter, 2.5 cm diameter) with use of an Amicon 10x collecting device and washed twice with 5 ml of 0.02 mol/l of Tris/HCl, pH 7.4. The filters are moistened with 0.3% polyethylenimine (Serva; Heidelberg, Germany) for 30 minutes to reduce the unspecific binding. The radioactivity that was held up by the filter is determined in a 5-channel gamma-counter (Wallac-LKB 1470 Wizard).
In the table below, the IC50 values that are obtained for the preferred compounds, as defined above, are indicated.

In the case of `CC(C)C(NC(=O)C1(NC(=O)C(Cc2ccccc2)c2ccccc2)CCc2[nH]c3ccccc3c2C1)C(=O)NC(CC(N)=O)C(N)=O` [Compound 18, N-[[(3R)-2,3,4,9-Tetrahydro-3-[(1-oxo-2,3-diphenyl-propyl)amino]-1H-carbaol-3-yl]-carbonyl]-L-valyl-L-aspartamide], the 50% inhibitory concentration (IC50) in test [1] is 5 µM; in test [2] it was 0.9 µM.
Turning to `CC[C@H](C)[C@H](NC(=O)CCc1ccccc1)C(=O)N[C@]1(C(=O)N[C@H](C(=O)N[C@@H](CC(N)=O)C(N)=O)C(C)C)CCc2[nH]c3ccccc3c2C1` [Compound 22, N-[[(3R)-2,3,4,9-Tetrahydro-3-[[(2S,3S)-3-methyl-1-oxo-2-[(1-oxo-3-phenylpropyl)amino]-pentyl]amino]-1H-carbazol-3-yl]carbonyl]-L-valyl-L-aspartamide], the IC50 in test [1] amounted to 1 µM; in test [2], 2 µM.
`CC[C@H](C)[C@H](NC(=O)OCc1ccccc1)C(=O)N[C@]1(C(=O)N[C@H](C(=O)Nc2ccc(C(N)=O)cc2)C(C)C)CCc2[nH]c3ccccc3c2C1` [Compound 45, Phenylmethyl [(1S,2S)-1-[[[(3R)-3-[[[(1S)-1-[[[4-(aminocarbonyl)phenyl]amino]carbonyl]-2-methylpropyl]amino]carbonyl]-2,3,4,9-tetrahydro-1H-carbazol-3-yl]amino]carbonyl]-2-methylbutyl]carbamate]: the results for the IC50 in test [1] and in test [2] were 1 µM and 0.3 µM, respectively.
Turning to `CC[C@H](C)[C@H](NC(=O)OCc1ccccc1)C(=O)N[C@]1(C(=O)N[C@H](C(N)=O)C(C)C)CCc2[nH]c3ccccc3c2C1` [Compound 58, Phenylmethyl [(1S,2S)-1-[[[(3R)-3-[[[(1S)-1-(aminocarbonyl)-2-methylpropyl]amino]-carbonyl]-2,3,4,9-tetrahydro-1H-carbazol-3-yl]-amino]carbonyl]-2-methylbutyl]carbamate], the values for the IC50 in test [1] and in test [2] were 0.37 µM and 0.3 µM, respectively.
For `CC[C@H](C)[C@H](NC(=O)[C@@]1(NC(=O)[C@@H](NC(=O)OCc2ccccc2)[C@@H](C)CC)CCc2[nH]c3ccccc3c2C1)C(N)=O` [Compound 64, Phenylmethyl [(1S,2S)-1-[[[(3R)-3-[[[(1S,2S)-1-(aminocarbonyl)-2-methylbutyl]amino]-carbonyl]-2,3,4,9-tetrahydro-1H-carbazol-3-yl]-amino]carbonyl]-2-methylbutyl]carbamate] the same measures were 1.5 µM and 1.7 µM.
`CC(C)[C@H](NC(=O)[C@@]1(NC(=O)Cc2ccc(F)cc2)CCc2[nH]c3ccccc3c2C1)C(N)=O` [Compound 91, (3R)-N-[(1S)-1-(Aminocarbonyl)-2-methyl-propyl]-3-[[(4-fluorophenyl)acetyl]amino]-2,3,4,9-tetrahydro-1H-carbazole-3-carboxamide]: the results for the IC50 in test [1] and in test [2] were 2 µM and 2.4 µM, respectively.
The like results for `CC(C)[C@H](NC(=O)[C@@]1(NC(=O)Cc2cccc(Br)c2)CCc2[nH]c3ccccc3c2C1)C(N)=O` [Compound 96, (3R)-N-[(1S)-1-(Aminocarbonyl)-2-methyl-propyl]-3-[[(3-bromophenyl)acetyl]-amino]-2,3,4,9-tetrahydro-1H-carbazole-3-carboxamide] were, in that order, 3 µM and 4 µM.
As to `CC[C@H](C)[C@H](NC(=O)OCc1ccccc1)C(=O)N[C@]1(C(=O)N[C@H](C(N)=O)C(C)C)CCc2[nH]c3c(OC)cccc3c2C1` [Compound 147a, Phenylmethyl [(1S,2S)-1-[[[(3R)-3-[[[(1S)-1-(aminocarbonyl)-2-methypropyl]amino]-carbonyl]-2,3,4,9-tetrahydro-8-methoxy-1H-carbazol-3-yl]amino]carbonyl]-2-methylbutyl]carbamate], the IC50 was determined as 0.25 µM in test [1] and 0.076 µM in test [2].
